Results published in patent US20230355622A1, “METHODS OF CHEMOVACCINATION AGAINST PLASMODIUM INFECTIONS” (Merck Sharp & Dohme LLC, priority 2020, published 2023).

These compounds were tested on parasite (assay: Parasite LDH growth assay (Parasite Assay), antiparasite potency). Conditions: 72 h, parasite LDH growth assay, ring stage parasites, 72 hours incubation at 37° C.; read-out: EC50.
Format: cell-based
Procedure: Assessing Antiparasite Potency in a Parasite LDH Growth Assay (Parasite Assay)
The parasite stock was maintained at 4% haematocrit in RPMI-Hepes media buffered with sodium bicarbonate and supplemented with 5% heat inactivated human serum and 0.5% albumax.
On the day of assay set up, a blood smear of the parasite culture was Giemsa stained and counted. The parasitemia was adjusted to 0.7% rings and the haematocrit was diluted to 2% in RPMI-Hepes media buffered with sodium bicarbonate and supplemented with 5% heat inactivated human serum and 0.5% albumax. 30 ul of diluted parasites are then added into 10 ul of media+compound in pre-prepared Greiner TC assay plates. Parasite assay plates were placed in gassed humidified boxes in single layer and allowed to incubate at 37° C. for 72 hours. After 72 hours growth, assay plates are sealed with parafilm and frozen flat, in single file at −80° C. overnight. On the following day, assay plates are allowed to thaw at room temperature for 4 hours to which an LDH assay is performed to measure parasite growth.

Row | SMILES | EC50 [nM]
1 | CC(C)[C@]1(C)CC(=O)N([C@@H]2CCOc3ccc(C(=O)NC4c5ccccc5OC(C)(C)C4O)cc32)C(=N)N1 (single isomer, unassigned) [Example 11A] | 0.9
2 | CCC1C[C@@H](N2C(=N)NC(CC)(CC)CC2=O)c2cc(C(=O)NC3c4ccccc4OC(C)(C)C3O)ccc2O1 (single isomer, unassigned) [Example 13A] | 0.8
3 | CCC1C[C@@H](N2C(=N)NC(CC)(CC)CC2=O)c2cc(C(=O)NC3c4ccccc4OC(C)(C)C3O)ccc2O1 (single isomer, unassigned) [Example 13B] | 54
4 | CCC1(CC)CC(=O)N([C@@H]2CCOc3ccc(C(=O)NC4c5cc(F)ccc5C[C@H]4O)cc32)C(=N)N1 (stereo in doubt) [Example 148, (4R)-4-(4,4-diethyl-2-imino-6-oxo-hexahydropyrimidin-1-yl)-N-[(1R,2R)-6-fluoro-2-hydroxy-indan-1-yl]chromane-6-carboxamide] | 2.7
5 | CCC1(CC)CC(=O)N(C2CCOc3ccc(C(=O)N[C@@H]4c5ccccc5OC(C)(C)[C@H]4O)cc32)C(=N)N1 (stereo partly drawn) [Example 2A, 4-(4,4-diethyl-2-imino-6-oxotetrahydropyrimidin-1(2H)-yl)-N-((3S,4R)-3-hydroxy-2,2-dimethylchroman-4-yl)chroman-6-carboxamide] | 0.5
6 | CCC1(CC)CC(=O)N([C@@H]2CCOc3ccc(C(=O)N[C@H]4CC(C)(C)Oc5ccc(F)cc54)cc32)C(=N)N1 [Example 7A, (R)-4-(4,4-diethyl-2-imino-6-oxotetrahydropyrimidin-1(2H)-yl)-N-((S)-6-fluoro-2,2-dimethylchroman-4-yl)chromane-6-carboxamide] | 0.4
7 | CC(C)[C@]1(C)CC(=O)N([C@@H]2CCOc3ccc(C(=O)N[C@H]4CC(C)(C)Oc5ccccc54)cc32)C(=N)N1 [Example 10A, (R)-N-((S)-2,2-dimethylchroman-4-yl)-4-((S)-2-imino-4-isopropyl-4-methyl-6-oxotetrahydropyrimidin-1(2H)-yl)chromane-6-carboxamide] | 0.5
8 | CCC1(CC)CC(=O)N([C@@H]2CCOc3ccc(C(=O)N[C@H]4CC(C)(C)Oc5ccc(Br)cc54)cc32)C(=N)N1 [Example 14A, (R)-N-((S)-6-bromo-2,2-dimethylchroman-4-yl)-4-(4,4-diethyl-2-imino-6-oxotetrahydropyrimidin-1(2H)-yl)chromane-6-carboxamide] | 1
9 | CCC1(CC)CC(=O)N([C@@H]2CCOc3ccc(C(=O)N[C@@H]4c5cc(Br)ccc5OC(C)(C)[C@H]4O)cc32)C(=N)N1 [Example 15A, (R)-N-((3S,4R)-6-bromo-3-hydroxy-2,2-dimethylchroman-4-yl)-4-(4,4-diethyl-2-imino-6-oxotetrahydropyrimidin-1(2H)-yl)chromane-6-carboxamide] | 0.3
10 | CCC1(CC)CC(=O)N([C@@H]2CC(COC)Oc3ccc(C(=O)N[C@@H]4c5ccccc5OC(C)(C)[C@H]4O)cc32)C(=N)N1 (stereo partly drawn) [Example 18A, (4R)-4-(4,4-diethyl-2-imino-6-oxotetrahydropyrimidin-1(2H)-yl)-N-((3S,4R)-3-hydroxy-2,2-dimethylchroman-4-yl)-2-(methoxymethyl)chromane-6-carboxamide] | 0.8
11 | CCC1(CC)CC(=O)N([C@@H]2CCOc3ccc(C(=O)N[C@@H]4c5cc(Cl)ccc5OC(C)(C)[C@H]4O)cc32)C(=N)N1 [Example 19A, (R)-N-((3S,4R)-6-chloro-3-hydroxy-2,2-dimethylchroman-4-yl)-4-(4,4-diethyl-2-imino-6-oxotetrahydropyrimidin-1(2H)-yl)chromane-6-carboxamide] | 0.3
12 | CCC1(CC)CC(=O)N([C@@H]2CCOc3ccc(C(=O)N[C@@H]4c5cc(C#N)ccc5OC(C)(C)[C@H]4O)cc32)C(=N)N1 [Example 20A, (R)-N-((3S,4R)-6-cyano-3-hydroxy-2,2-dimethylchroman-4-yl)-4-(4,4-diethyl-2-imino-6-oxotetrahydropyrimidin-1(2H)-yl)chromane-6-carboxamide] | 0.8
13 | CCC1(CC)CC(=O)N([C@@H]2CCOc3ccc(C(=O)N[C@H]4CC(C)(C)Oc5ccc(C#N)cc54)cc32)C(=N)N1 [Example 21A, (R)-N-((S)-6-cyano-2,2-dimethylchroman-4-yl)-4-(4,4-diethyl-2-imino-6-oxotetrahydropyrimidin-1(2H)-yl)chromane-6-carboxamide] | 0.8
14 | CCC1(CC)CC(=O)N([C@@H]2CC3(COC3)Oc3ccc(C(=O)N[C@H]4CC(C)(C)Oc5ccccc54)cc32)C(=N)N1 [Example 22A, (R)-4-(4,4-diethyl-2-imino-6-oxotetrahydropyrimidin-1(2H)-yl)-N-((S)-2,2-dimethylchroman-4-yl)spiro[chromane-2,3′-oxetane]-6-carboxamide] | 0.7
15 | CCC1(CC)CC(=O)N([C@@H]2CC3(COC3)Oc3ccc(C(=O)N[C@@H]4c5ccccc5C[C@H]4O)cc32)C(=N)N1 [Example 23A, (R)-4-(4,4-diethyl-2-imino-6-oxotetrahydropyrimidin-1(2H)-yl)-N-((1R,2R)-2-hydroxy-2,3-dihydro-1H-inden-1-yl)spiro[chromane-2,3′-oxetane]-6-carboxamide] | 5
16 | CCC1(CC)CC(=O)N([C@@H]2CCOc3ccc(C(=O)N[C@@H]4c5cc(F)ccc5OC(C)(C)[C@H]4O)cc32)C(=N)N1 [Example 25A, (R)-4-(4,4-diethyl-2-imino-6-oxotetrahydropyrimidin-1(2H)-yl)-N-((3S,4R)-6-fluoro-3-hydroxy-2,2-dimethylchroman-4-yl)chromane-6-carboxamide] | 0.5
17 | CCC1(CC)CC(=O)N([C@@H]2CCOc3c(Cl)cc(C(=O)N[C@@H]4c5ccccc5OC(C)(C)[C@H]4O)cc32)C(=N)N1 [Example 29A, (R)-8-chloro-4-(4,4-diethyl-2-imino-6-oxotetrahydropyrimidin-1(2H)-yl)-N-((3S,4R)-3-hydroxy-2,2-dimethylchroman-4-yl)chromane-6-carboxamide] | 1

Same assay, conditions: parasite LDH growth assay, ring stage parasites, 72 hours incubation at 37° C.; read-out: EC50

Row | SMILES | EC50 [nM]
18 | CCC1(CC)CC(=O)N(C2c3cc(C(=O)N[C@@H]4c5ccccc5OC(C)(C)[C@H]4O)ccc3CC2OC)C(=N)N1 (single isomer, unassigned) [Example 251A] | 0.4
19 | CCC1(CC)CC(=O)N([C@@H]2CCOc3ccc(C(=O)NC4c5ccccc5OCC4O)cc32)C(=N)N1 (stereo partly drawn) [Example 8A, (4R)-4-(4,4-diethyl-2-imino-6-oxotetrahydropyrimidin-1(2H)-yl)-N-(3-hydroxychroman-4-yl)chromane-6-carboxamide] | 10
20 | CCC1C[C@@H](N2C(=N)NC(CC)(CC)CC2=O)c2cc(C(=O)N[C@@H]3c4ccccc4C[C@H]3O)ccc2O1 (stereo partly drawn) [Example 9A, (4R)-4-(4,4-diethyl-2-imino-6-oxotetrahydropyrimidin-1(2H)-yl)-2-ethyl-N-((1R,2R)-2-hydroxy-2,3-dihydro-1H-inden-1-yl)chromane-6-carboxamide] | 0.9
21 | CCC1(CC)CC(=O)N([C@@H]2CC(COC)Oc3ccc(C(=O)N[C@H]4CC(C)(C)Oc5ccccc54)cc32)C(=N)N1 (stereo partly drawn) [Example 16A, (4R)-4-(4,4-diethyl-2-imino-6-oxotetrahydropyrimidin-1(2H)-yl)-N-((S)-2,2-dimethylchroman-4-yl)-2-(methoxymethyl)chromane-6-carboxamide] | 0.6
